Data taken from US20110112148A1, “INDOLINE COMPOUNDS” (Ferrer Internacional S.A., priority 2007, published 2011).

Target: T1, recombinant human MT1 receptor (Homo sapiens, UniProt P48039)
T1 construct: expressed in transfected cells; host or cells: unnamed cell line co-expressing mitochondrial apoaequorin and the Galpha16 subunit
Test: Agonist activity on MT1 receptors (aequorin luminescence, Gα16 co-expressing cell line)
Format: cell-based
Settings: percentage activity with respect to the reference agonist at its EC100; for MT1 agonism, 1 nm: compound at 1 nm; for MT1 agonism, 100 nm: compound at 100 nm
Text: Determination of the Agonist Activity on MT1 Receptors
In order to screen compounds for the MT1 receptor a cell line is used that is characterised by stable overexpression of the recombinant human MT1 receptor in a cell line that in turn co-expresses mitochondrial apoaequorin and the Gα16 subunit.
The Ga16 subunit belongs to the G protein family, formed by GPCR, wherein the transduction of intracellular signals occurs via phospholipase (PLC). PLC activation produces an increase in inositol-triphosphate levels that leads to an increase in intracellular calcium. Ga16 overexpression thus allows an increase in intracellular calcium levels that is independent and compatible with the study receptor's own signal transduction pathway.
Following its binding to calcium, the aequorin oxidises coelenterazine to coelenteramide, a reaction that releases CO2 and light.
The trial protocol for the screening of possible agonists consists in collecting the cells and keeping them in suspension overnight in the presence of coelenterazine in order to reconstitute aequorin. On the following day the cells are injected on a plate where the compounds to be screened are diluted, and the luminescence released is read immediately. When wishing to study the possible antagonism of the same compounds, the reference agonist compound is added in the same well after 15-30 min from the first injection and the luminescence released is assessed.
Agonist activity is calculated as percentage activity with respect to the reference agonist at the concentration corresponding to its EC100. Antagonist activity is expressed as percentage inhibition over the reference agonist activity at the concentration corresponding to its EC80.

T1 sequence (P48039 whole entry): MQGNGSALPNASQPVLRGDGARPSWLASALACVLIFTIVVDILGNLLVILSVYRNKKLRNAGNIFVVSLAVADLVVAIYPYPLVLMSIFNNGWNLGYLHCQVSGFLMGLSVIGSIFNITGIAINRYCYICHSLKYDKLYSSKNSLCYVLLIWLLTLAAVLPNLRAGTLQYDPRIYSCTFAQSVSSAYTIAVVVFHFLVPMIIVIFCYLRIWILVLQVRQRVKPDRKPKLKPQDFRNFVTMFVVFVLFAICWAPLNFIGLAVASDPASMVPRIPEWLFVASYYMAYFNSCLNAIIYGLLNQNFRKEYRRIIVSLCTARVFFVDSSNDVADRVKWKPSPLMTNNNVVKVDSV

| MT1 agonism, 1 nm | MT1 agonism, 100 nm | SMILES |
| --- | --- | --- |
| 13.9% | 76.6% | CC(=O)NCCN1CCc2ccc3c(c21)CCO3 [N-[2-(2,3,7,8-tetrahydro-1H-furo[2,3-g]indol-1-yl)-ethyl]-acetamide, reference compound] |
| 11.5% | 89.8% | COc1ccc2c(c1)N(C(C)CNC(C)=O)CC2 (centres unmarked) [Example 5, N-[2-(6-methoxy-2,3-dihydro-indol-1-yl)-propyl]-acetamide] |
| 14.6% | 94% | COc1ccc2c(c1)N(CCNC(=O)C(F)(F)F)CC2 [Example 4, 2,2,2-trifluoro-N-[2-(6-methoxy-2,3-dihydro-indol-1-yl)-ethyl]-acetamide] |
| 13.1% | 92% | COc1ccc2c(c1)N(CCNC(C)=O)CC2 [Example 1, N-[2-(6-methoxy-2,3-dihydro-indol-1-yl)-ethyl]-acetamide] |
